Each block holds one compound with its values, some of them ahead of it. The source made the active and inactive calls. The calls are words filed in the database; no cut-off is given here. Square brackets hold non-standard residues; d marks the D form. Peptide text beside a SMILES is read from it. * marks the point of attachment. Nle = CCCC[C@H](N)C(=O)O; Cbz = O=C(OCc1ccccc1)*
Columns and labels:
[1] = target: T1, Ubiquitin carboxyl-terminal hydrolase 5 (Homo sapiens) (UniProt P45974); experiment: Inhibition of human USP5 using Ub4 as substrate at 50 uM after 10 mins by SDS-PAGE analysis
T1 sequence (whole entry): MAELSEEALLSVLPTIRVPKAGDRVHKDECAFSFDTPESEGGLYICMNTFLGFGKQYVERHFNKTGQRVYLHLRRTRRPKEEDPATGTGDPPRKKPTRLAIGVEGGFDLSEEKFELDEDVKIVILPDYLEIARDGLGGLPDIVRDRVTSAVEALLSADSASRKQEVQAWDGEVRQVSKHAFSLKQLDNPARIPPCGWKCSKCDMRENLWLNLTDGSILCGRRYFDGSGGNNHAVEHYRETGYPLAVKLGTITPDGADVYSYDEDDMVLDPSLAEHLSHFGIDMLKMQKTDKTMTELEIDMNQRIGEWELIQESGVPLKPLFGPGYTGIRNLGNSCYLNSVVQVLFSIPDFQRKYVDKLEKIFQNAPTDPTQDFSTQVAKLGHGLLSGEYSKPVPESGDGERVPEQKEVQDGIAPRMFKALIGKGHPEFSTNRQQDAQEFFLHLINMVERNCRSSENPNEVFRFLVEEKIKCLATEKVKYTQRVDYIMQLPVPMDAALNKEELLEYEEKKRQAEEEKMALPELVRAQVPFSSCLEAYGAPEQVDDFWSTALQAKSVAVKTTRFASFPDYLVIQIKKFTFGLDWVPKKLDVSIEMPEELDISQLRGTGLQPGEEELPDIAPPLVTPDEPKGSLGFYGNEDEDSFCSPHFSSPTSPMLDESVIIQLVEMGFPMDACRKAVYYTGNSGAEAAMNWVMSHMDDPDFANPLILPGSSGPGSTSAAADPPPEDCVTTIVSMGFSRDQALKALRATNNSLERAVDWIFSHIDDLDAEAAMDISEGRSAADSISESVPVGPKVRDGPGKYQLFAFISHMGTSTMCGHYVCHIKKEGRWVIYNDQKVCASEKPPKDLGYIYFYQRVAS

[2] = target: Ubiquitin carboxyl-terminal hydrolase 9X (Homo sapiens, UniProt Q93008); experiment: Inhibition of USP9x in human Z138 cells after 1 hr by immunoblotting analysis; format: cell-based
[3] = target: T2, Ubiquitin carboxyl-terminal hydrolase isozyme L1 (Homo sapiens, UniProt P09936); experiment: Inhibition of UCH-L1 in human Z138 cells after 1 hr by immunoblotting analysis; format: cell-based
T2 sequence (P09936 whole entry): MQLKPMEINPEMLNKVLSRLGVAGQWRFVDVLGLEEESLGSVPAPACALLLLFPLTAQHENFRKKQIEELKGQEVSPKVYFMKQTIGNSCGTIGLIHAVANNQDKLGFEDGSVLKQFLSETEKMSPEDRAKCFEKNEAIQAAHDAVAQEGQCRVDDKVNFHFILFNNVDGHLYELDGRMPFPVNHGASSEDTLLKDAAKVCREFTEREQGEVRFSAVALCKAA

[4] = target: T3, Ubiquitin carboxyl-terminal hydrolase 5 (Homo sapiens, UniProt P45974); experiment: Inhibition of USP5 in human Z138 cells after 1 hr by immunoblotting analysis; format: cell-based
T3 sequence (P45974 whole entry): T1 sequence (whole entry)

[5] = target: T1, Ubiquitin carboxyl-terminal hydrolase 5 (Homo sapiens); experiment: Inhibition of wild type human USP5 expressed in Escherichia coli BL21(DE3) using K48-linked tetraubiquitin as substrate assessed as substrate hydrolysis at 5 to 50 uM after 15 mins by SDS-PAGE analysis
[6] = target: T1, Ubiquitin carboxyl-terminal hydrolase 5 (Homo sapiens); experiment: Binding affinity to human recombinant USP5 by SDS-PAGE analysis
[7] = target: T4, Ubiquitin carboxyl-terminal hydrolase 4 (Homo sapiens) (UniProt Q13107); experiment: Binding affinity to human USP4 after 1 hr by SDS-PAGE analysis
T4 sequence (whole entry): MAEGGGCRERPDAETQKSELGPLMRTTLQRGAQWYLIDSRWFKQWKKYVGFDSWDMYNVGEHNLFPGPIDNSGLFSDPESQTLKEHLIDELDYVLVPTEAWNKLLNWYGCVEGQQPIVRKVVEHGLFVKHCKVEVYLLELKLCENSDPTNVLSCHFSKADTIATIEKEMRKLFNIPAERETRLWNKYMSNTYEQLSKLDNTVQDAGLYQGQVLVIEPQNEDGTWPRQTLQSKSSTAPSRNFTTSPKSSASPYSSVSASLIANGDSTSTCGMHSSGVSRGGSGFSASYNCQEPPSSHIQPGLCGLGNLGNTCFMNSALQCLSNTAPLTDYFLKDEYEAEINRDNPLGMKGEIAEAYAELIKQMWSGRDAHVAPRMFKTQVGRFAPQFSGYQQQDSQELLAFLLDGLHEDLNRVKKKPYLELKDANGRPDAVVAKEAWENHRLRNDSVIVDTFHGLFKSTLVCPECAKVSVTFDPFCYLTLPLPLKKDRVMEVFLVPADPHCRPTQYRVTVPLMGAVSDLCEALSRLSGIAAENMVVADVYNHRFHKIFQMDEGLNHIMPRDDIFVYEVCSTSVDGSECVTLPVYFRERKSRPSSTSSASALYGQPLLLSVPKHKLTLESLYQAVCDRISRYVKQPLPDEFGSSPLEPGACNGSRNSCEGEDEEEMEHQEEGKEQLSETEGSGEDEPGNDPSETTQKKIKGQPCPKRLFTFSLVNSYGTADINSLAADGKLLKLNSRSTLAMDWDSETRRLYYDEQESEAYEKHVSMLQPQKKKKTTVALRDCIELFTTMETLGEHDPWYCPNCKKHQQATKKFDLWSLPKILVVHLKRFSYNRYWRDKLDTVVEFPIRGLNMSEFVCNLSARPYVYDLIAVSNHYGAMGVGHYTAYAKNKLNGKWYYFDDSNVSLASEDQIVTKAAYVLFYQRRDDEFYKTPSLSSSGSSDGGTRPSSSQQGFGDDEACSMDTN

[8] = target: Ubiquitin carboxyl-terminal hydrolase isozyme L1 (Homo sapiens) (UniProt P09936); experiment: Binding affinity to human UCH-L1 after 1 hr by SDS-PAGE analysis
RBL-2H3 = experiment: Binding affinity to USP5 in rat RBL2H3 cell extracts at 1 to 100 uM by SDS-PAGE analysis; format: cell-free
[9] = target: Ubiquitin carboxyl-terminal hydrolase isozyme L1 (Homo sapiens) (UniProt P09936); experiment: Inhibition of human UCH-L1 using Ub-AMC as substrate at 1 to 20 uM after 10 mins by fluorometric analysis
[10] = target: T1, Ubiquitin carboxyl-terminal hydrolase 5 (Homo sapiens); experiment: Competitive binding affinity to human recombinant USP5 after 1 hr by SDS-PAGE analysis in presence of biotin-DMT
[11] = target: T4, Ubiquitin carboxyl-terminal hydrolase 4 (Homo sapiens); experiment: Inhibition of human USP4 using Ub-AMC as substrate at 1 to 20 uM after 10 mins by fluorometric analysis
[12] = target: T1, Ubiquitin carboxyl-terminal hydrolase 5 (Homo sapiens); experiment: Inhibition of human USP5 using Ub-AMC as substrate at 1 to 20 uM after 10 mins by fluorometric analysis
[13] = target: T1, Ubiquitin carboxyl-terminal hydrolase 5 (Homo sapiens); experiment: Inhibition of wild type human USP5 expressed in Escherichia coli BL21(DE3) using K48-linked tetraubiquitin as substrate assessed as substrate hydrolysis at 20 uM after 15 mins by SDS-PAGE analysis

Ubiquitin carboxyl-terminal hydrolase 9X, sequence (Q93008 whole entry): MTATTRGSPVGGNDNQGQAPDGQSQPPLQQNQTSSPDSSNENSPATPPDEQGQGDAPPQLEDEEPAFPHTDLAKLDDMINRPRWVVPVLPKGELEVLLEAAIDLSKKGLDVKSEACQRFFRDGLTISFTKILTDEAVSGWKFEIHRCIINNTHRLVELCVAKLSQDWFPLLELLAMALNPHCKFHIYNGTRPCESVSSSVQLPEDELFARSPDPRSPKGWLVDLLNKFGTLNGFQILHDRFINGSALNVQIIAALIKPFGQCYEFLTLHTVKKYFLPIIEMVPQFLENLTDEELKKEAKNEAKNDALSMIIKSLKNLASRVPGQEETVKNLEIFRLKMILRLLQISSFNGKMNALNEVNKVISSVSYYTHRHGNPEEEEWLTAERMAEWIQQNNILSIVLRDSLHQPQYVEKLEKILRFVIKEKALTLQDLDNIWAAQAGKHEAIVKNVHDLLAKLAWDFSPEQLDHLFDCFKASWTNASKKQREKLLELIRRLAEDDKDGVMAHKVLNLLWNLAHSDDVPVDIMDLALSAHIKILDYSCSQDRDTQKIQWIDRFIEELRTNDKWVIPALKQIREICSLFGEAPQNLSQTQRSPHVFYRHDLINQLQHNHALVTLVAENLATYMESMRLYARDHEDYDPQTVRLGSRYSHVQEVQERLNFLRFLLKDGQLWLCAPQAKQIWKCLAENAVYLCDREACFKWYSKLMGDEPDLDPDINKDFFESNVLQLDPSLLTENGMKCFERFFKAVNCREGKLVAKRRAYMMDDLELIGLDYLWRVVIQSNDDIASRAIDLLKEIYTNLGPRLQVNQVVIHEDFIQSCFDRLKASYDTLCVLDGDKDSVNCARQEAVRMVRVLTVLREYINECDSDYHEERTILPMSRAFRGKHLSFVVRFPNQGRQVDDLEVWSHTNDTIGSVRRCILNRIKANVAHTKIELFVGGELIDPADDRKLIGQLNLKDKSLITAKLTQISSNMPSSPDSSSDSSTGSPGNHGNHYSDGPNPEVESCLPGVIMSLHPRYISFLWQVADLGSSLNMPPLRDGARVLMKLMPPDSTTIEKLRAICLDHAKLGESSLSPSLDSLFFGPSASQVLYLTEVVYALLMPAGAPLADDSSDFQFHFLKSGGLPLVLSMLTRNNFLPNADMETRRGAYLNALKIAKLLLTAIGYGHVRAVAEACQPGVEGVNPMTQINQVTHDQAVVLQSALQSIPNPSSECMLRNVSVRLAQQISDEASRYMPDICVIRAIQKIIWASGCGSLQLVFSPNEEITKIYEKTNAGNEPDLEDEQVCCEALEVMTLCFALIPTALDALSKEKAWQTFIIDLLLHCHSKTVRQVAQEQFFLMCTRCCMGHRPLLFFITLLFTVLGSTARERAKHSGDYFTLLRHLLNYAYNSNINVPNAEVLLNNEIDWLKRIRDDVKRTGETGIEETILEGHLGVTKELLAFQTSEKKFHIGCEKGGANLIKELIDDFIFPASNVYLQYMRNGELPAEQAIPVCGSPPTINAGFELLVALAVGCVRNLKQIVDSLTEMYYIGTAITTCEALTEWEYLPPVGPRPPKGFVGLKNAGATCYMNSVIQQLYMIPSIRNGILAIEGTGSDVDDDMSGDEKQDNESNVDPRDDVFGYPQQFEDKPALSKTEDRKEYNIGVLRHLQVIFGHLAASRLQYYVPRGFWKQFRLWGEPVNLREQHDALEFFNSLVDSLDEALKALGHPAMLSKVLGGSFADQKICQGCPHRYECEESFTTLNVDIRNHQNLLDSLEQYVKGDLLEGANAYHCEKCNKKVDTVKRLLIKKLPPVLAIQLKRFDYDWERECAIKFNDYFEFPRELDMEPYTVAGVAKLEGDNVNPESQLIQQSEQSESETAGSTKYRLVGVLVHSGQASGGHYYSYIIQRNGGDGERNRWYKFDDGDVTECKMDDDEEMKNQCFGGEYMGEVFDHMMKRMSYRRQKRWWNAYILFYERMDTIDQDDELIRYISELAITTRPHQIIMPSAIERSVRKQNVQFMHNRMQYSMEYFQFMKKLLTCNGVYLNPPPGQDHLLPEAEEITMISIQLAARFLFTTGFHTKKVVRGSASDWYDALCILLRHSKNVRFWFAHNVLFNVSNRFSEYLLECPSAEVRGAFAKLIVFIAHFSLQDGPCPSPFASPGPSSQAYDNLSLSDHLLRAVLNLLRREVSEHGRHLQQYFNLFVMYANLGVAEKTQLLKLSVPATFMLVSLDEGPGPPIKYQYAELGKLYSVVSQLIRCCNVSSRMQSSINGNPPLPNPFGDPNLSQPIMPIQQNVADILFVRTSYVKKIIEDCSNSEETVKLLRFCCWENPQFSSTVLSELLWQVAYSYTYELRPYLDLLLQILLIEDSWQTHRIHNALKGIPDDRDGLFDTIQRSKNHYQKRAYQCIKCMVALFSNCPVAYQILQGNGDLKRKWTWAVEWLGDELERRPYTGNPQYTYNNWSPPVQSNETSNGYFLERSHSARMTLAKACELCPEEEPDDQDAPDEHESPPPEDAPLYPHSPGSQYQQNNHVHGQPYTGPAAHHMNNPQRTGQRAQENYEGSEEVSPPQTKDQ

inhibition [1]: inactive
SMILES: COc1ccc(C(=O)ONC(=O)CNC(=O)[C@H](Cc2ccccc2)NC(=O)OCc2ccccc2)cc1

IC50 [2]: 3 µM | IC50 [3]: 3 µM | IC50 [4]: 3 µM
SMILES: CCC[C@H](NC(=O)/C(C#N)=C/c1cccc(Br)n1)c1ccccc1

inhibition [1]: inactive
SMILES: CC(C)C[C@H](NC(=O)OCc1ccccc1)C(=O)N[C@H](C=O)Cc1ccccc1 (Cbz-Leu-Phe-aldehyde)

inhibition [1]: inactive
SMILES: CCCC[C@@H](C=O)NC(=O)[C@H](CC(C)C)NC(=O)[C@H](CC(C)C)NC(C)=O (Ac-Leu-Leu-[Nle]-aldehyde)

inhibition [5]: Active | Activity [6]: Active | inhibition [7]: Active | inhibition [8]: inactive
SMILES: Cc1c(C)c(-c2ccc(OCc3cn(CCCCCCNC(=O)CCCC[C@@H]4SC[C@@H]5NC(=O)N[C@@H]54)nn3)cc2)c(O)c(O)c1-c1ccc(O)cc1
Activity (RBL-2H3): Active

inhibition [9]: Active | Activity [10]: Active | inhibition [11]: Active | inhibition [12]: Active | inhibition [13]: Active
SMILES: Cc1c(C)c(-c2ccc(O)cc2)c(O)c(O)c1-c1ccc(O)cc1

Activity [6]: inactive
SMILES: O=C(CCCC[C@@H]1SC[C@@H]2NC(=O)N[C@@H]21)NCCCCCCn1cc(COc2ccccc2)nn1
